The target in assay [1] is T1, purified human recombinant Top 1 (Homo sapiens, UniProt P11387).
T1 sequence (P11387 1-765): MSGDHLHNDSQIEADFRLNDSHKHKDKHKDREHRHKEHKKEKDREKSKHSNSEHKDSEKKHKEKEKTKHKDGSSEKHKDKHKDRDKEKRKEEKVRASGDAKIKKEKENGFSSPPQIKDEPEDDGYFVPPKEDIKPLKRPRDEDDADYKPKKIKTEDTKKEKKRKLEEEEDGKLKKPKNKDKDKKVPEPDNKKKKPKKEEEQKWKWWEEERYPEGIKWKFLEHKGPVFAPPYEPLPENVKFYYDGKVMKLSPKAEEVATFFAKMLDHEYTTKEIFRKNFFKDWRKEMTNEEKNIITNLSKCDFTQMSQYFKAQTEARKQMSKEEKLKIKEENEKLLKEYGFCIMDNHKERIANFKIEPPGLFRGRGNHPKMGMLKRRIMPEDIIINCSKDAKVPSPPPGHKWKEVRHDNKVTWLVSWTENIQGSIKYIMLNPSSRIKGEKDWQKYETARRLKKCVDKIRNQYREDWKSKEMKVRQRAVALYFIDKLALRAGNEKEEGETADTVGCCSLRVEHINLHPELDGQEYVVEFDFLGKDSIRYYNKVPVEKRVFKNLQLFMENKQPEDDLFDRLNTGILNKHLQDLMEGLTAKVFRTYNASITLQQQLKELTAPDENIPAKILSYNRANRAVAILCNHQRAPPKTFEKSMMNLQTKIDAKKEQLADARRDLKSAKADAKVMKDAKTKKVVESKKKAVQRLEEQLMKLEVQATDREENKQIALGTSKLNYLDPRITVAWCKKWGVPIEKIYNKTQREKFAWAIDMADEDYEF
The assay can be described thus: Top1-catalysed cleavage assay. Type of assay: biochemical. The conditions noted are these: 1, 10, 100 and 1000 μM. How it is done:
The influence of SDD has been studied at various concentrations on Top 1 cleavage activity in comparison with Camptothecin.
The method consists in an incubation of 3′-labeled oligonucleotides with enzyme Top1, or Top 1+CPT or Top 1-SDD.
3′-end labelling of the scissile strand was performed as described previously in the publication: Conversion of topoisomerase I cleavage complexes on the leading strand of ribosomal DNA into 5′-phosphorylated DNA double-strand breaks by replication runoff. Pommier, Y.; Jenkins, J.; Kohlhagen, G.; and Leteurtre, F.; Mutat. Res. (1995), 337, 135-145.
Thus, 10 pmol of […] was incubated in labelling buffer (100 mM potassium cacodylate, pH 7.2, 2 mM CaCl2, 200 μM DTT) for 1 h at 37° C.
The reaction mixture was passed through a G-25 Sephadex spin column by centrifugation at 1000 g for 5 min to remove the excess of unincorporated nucleotide.
The 3′-labeled oligonucleotide was mixed with the same amount of unlabeled complementary strand in annealing buffer (i.e. 10 mM Tris-HCl, pH 7.8, […]) and annealed by heating the reaction mixture for 5 min at 95° C. followed by slow cool down at room temperature. […]
Imaging and quantification of the cleavage products were performed using a Typhoon Phosphorimager (Amersham Biosciences) as described in Inhibition of Topoisomerase I cleavage activity by thiol-reactive compounds. […]

Assay [2] relates to DNA topoisomerase II (Topo II). The assay can be described thus: Topo II catalytic activity, decatenation of kDNA. Type of assay: biochemical. As to conditions: 1, 10, 100 and 1000 μM; dose independent. How it is done:
Test for revelation of the possible inhibitory effect of SDD on Topo II catalytic activity has been undertaken by decatenation of a catenated DNA substrate originating from Trypanosoma kinetoplasts (kDNA, TopoGen) into relaxed DNA forms.
The following standard reaction mixture contained 40 mM Tris/HCl pH 7.4, 10 mM MgCl2, 0.5 mM dithiothreitol, 1 mM ATP and […] kDNA has been carried out.
The reaction was initiated by the addition of 0.35 M NaCl nuclear extract and stopped after 20 min incubation at 37° C. by adding a denaturating solution containing 30% glycerol, 1% SDS, 0.5 mg/ml bromphenol blue.
The samples were then electrophoresed on a 1% agarose gel in 40 mM Tris/acetic acid, pH 8.0 containing 2 mM EDTA and 0.1 μg/ml ethidium bromide, for 45 min at 80V.
A positive control for decatenation was a decatenated kDNA marker obtained from TopoGen, containing a mixture of two species of relaxed
DNA, open circular DNA and covalently closed circular DNA.
DNA was visualized under UV light and the various DNA forms were quantified by densitometric scanning using the device described above.
Etoposide was used as positive control, as it is described in the following publication: Differential stabilisation of topoisomerase-II-DNA cleavable complexes doxorubicine and etoposide in doxorubicin-resistant rat glioblastoma cells. […]

Molecules are shown by their SMILES.

For `CCN1C[C@]2(COC)[C@H](O)C[C@H](OC)[C@]34C1[C@H]([C@H](OC)[C@H]23)[C@]1(OC(=O)CCCCCCC(=O)O[C@]23[C@H]5[C@@H](OC(=O)c6ccccc6)[C@](O)(C[C@H]5[C@@]56C7[C@@H]2[C@H](OC)[C@@H]5[C@](COC)(CN7CC)[C@H](O)C[C@@H]6OC)[C@@H](OC)[C@@H]3O)[C@H]2[C@@H](OC(=O)c3ccccc3)[C@](O)(C[C@H]24)[C@@H](OC)[C@@H]1O` [SDD, bis[O-(14-benzoylaconine-8-yl)]-suberate], the “Top 1 inhibitory activity compared with camptothecin” value in assay [1] was “no Top 1 inhibitory activity”. In addition, the “inhibition of Topo II activity compared to etoposide” value in assay [2] is reported as “relatively moderate inhibition”.

The values above are taken from patent US8703790B2, “Bis [O-(14-benzoylaconine-8-yl)] esters” (priority 2008, dated 2014).
